Earlier results as cited in patent US20120177729A1, “SUSTAINED RELEASE COMPOSITION OF RANOLAZINE” (Lupin Limited, priority 2009, published 2012).

What was measured:
[1] = in vivo

## COc1ccccc1OCC(O)CN1CCN(CC(=O)Nc2c(C)cccc2C)CC1 (racemic) [Ranolazine, (±)-N-(2,6-dimethylphenyl)-4-[2-hydroxy-3-(2-methoxyphenoxy)propyl]-1-piperazine-acetamide]
Low pH that occurs in the stomach
  Solubility: relatively high
pH above about 6.5
  Solubility in aqueous solutions: relatively insoluble
[1]
  Plasma half-life: relatively short
